Target: T1, BLK (Homo sapiens, UniProt P51451)
T1 construct: endogenous in cells; host or cells: 1:1 mix of Jurkat and Ramos cell lysates
Test: Radiometric protein kinase assay (33PanQinase, ProQinase), BLK
Format: biochemical
Details: ATP at apparent Km; read-out: BLK enzyme assay IC50
Experimental: A radiometric protein kinase assay (^33PanQinase® Activity Assay; ProQinase GmbH, Freiburg, Germany) was used for measuring the kinase activity of the protein kinases BLK, BTK, ITK and JAK3. All kinase assays were performed in 96-well FlashPlates™ from PerkinElmer (Boston, Mass., USA) in a 50 μl reaction volume. The reaction cocktail was pipetted in four steps in the following order: • 20 μl of assay buffer (standard buffer) • 5 μl of ATP solution (in H2O) • 5 μl of test compound (in 10% DMSO) • 10 μl of substrate/10 μl of enzyme solution (premixed)
The reaction cocktails were incubated at 30° C. for 60 minutes. The reaction was stopped with 50 μl of 2% (v/v) H3PO4, plates were aspirated and washed two times with 200 μl 0.9% (w/v) NaCl. Incorporation of ^33Pi was determined with a microplate scintillation counter (Microbeta, Wallac). All assays were performed with a BeckmanCoulter/SAGIAN™ Core System.

T1 sequence (P51451 whole entry): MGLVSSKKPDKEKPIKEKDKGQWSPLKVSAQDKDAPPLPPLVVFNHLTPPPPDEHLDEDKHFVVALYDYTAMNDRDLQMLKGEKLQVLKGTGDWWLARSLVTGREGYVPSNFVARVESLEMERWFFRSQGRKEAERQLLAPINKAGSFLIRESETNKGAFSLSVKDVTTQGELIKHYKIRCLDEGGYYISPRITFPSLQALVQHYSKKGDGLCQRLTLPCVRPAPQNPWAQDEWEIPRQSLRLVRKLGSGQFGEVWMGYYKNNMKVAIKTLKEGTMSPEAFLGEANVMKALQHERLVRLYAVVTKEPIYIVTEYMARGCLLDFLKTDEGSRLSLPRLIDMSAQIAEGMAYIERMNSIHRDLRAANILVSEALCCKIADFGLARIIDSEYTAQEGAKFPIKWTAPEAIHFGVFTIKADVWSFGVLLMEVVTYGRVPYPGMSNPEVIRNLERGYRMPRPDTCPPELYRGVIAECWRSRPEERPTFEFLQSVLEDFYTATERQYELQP

IC50: 2 µM
SMILES: C=CC(=O)Nc1cc(Cn2ncc3cnc(Nc4cnn(C)c4)nc32)ccc1F [Example 2, […]]

— patent US20140323504A1, “Pyrazolo[4,3-c]Pyridine Derivatives As Kinase Inhibitors” (Cellzome Limited, priority 2011, published 2014)
